Data as given in PubChem BioAssay (NCI).
“And” between values parts separate entries of the source, which are not always exact repeats. Equal values may be shown once.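 In this assay, cells in 96-well plates receive the compound at five concentrations for 48 hours. Endpoints are linearly interpolated between the surrounding concentrations. GI50 is the concentration that inhibits growth by half. TGI is the concentration that stops growth completely.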

What was measured:
Experiment in all cases: NCI tumour cell line growth inhibition, 48 h
SNB-75 CNS = test system: SNB-75 CNS
SK-MEL-28 melanoma = test system: SK-MEL-28 melanoma
SK-MEL-2 melanoma = test system: SK-MEL-2 melanoma
SR leukemia = test system: SR leukemia
HOP-62 NSCLC = test system: HOP-62 NSCLC
KM12 colon = test system: KM12 colon
M14 melanoma = test system: M14 melanoma
NCI/ADR-RES ovarian = test system: NCI/ADR-RES ovarian
DLD-1 colon = test system: DLD-1 colon
DMS 114 small cell lung = test system: DMS 114 small cell lung

SMILES | TGI (SNB-75 CNS) | TGI (SK-MEL-28 melanoma) | TGI (SK-MEL-2 melanoma) | TGI (SR leukemia) | TGI (HOP-62 NSCLC) | TGI (KM12 colon) | TGI (M14 melanoma) | TGI (NCI/ADR-RES ovarian) | TGI (DLD-1 colon) | TGI (DMS 114 small cell lung) | GI50 (SNB-75 CNS) | GI50 (DLD-1 colon) | GI50 (DMS 114 small cell lung) | GI50 (NCI/ADR-RES ovarian) | GI50 (SK-MEL-28 melanoma) | GI50 (SK-MEL-2 melanoma) | GI50 (SR leukemia) | GI50 (KM12 colon) | GI50 (M14 melanoma)
c1ccc(/C(=N\Nc2nc3ccccc3[nH]2)c2ccccn2)cc1 | 3.85 µM | 12.8 µM | 21.4 µM | > 31.8 µM | 2.12 µM | 17 µM | 1.89 µM | 0.842 µM | – | – | – | – | – | – | – | – | – | – | –
COC(=O)c1c(O)ccc2c1c1c(n2CCc2ccc(OC)c(OC)c2)C(=O)c2ccccc2C1=O | – | 24.8 µM | 32.8 µM | 51.3 µM | 32.9 µM | 25.6 µM | 31 µM | 31.7 µM | – | – | – | – | – | – | – | – | – | – | –
O=C1Nc2cccc(Cl)c2/C1=C\c1cccnc1 | 40.2 µM | > 100 µM | 25.9 µM | – | 19.1 µM | 25.9 µM | 19.6 µM | 15.9 µM | – | – | – | – | – | – | – | – | – | – | –
N#CC1(CCCI)CCCC1 | 20.2 µM | 57.3 µM | 81.8 µM | > 100 µM | – | > 100 µM | 50.4 µM | – | > 100 µM | 25.3 µM | – | – | – | – | – | – | – | – | –
N#Cc1c(-c2ccc([N+](=O)[O-])cc2)c2c([nH]c1=O)-c1ccccc1CCC2 | – | > 100 µM | > 100 µM | > 100 µM | > 100 µM | > 100 µM | > 100 µM | > 100 µM | – | – | – | – | – | – | – | – | – | – | –
CC[C@@]1(O)CC(OC2CC(N3CCOCC3)C(O)C(C)O2)c2c(O)c3c(c(O)c2[C@H]1O)C(=O)c1cccc(O)c1C3=O (stereo partly specified) | 0.93 µM and 0.399 µM | 1.8 µM and 1.94 µM | 0.959 µM and 1.5 µM | 25 µM | 0.597 µM and 0.427 µM | 3.59 µM and 1.68 µM | 1.51 µM | 1.55 µM and 4.61 µM | 2.78 µM and 3.2 µM | 0.968 µM and 1.08 µM | 0.0452 µM | 0.0324 µM | 0.0525 µM | 0.0133 µM | – | – | – | – | –
CC(C)CCN(CCC(C)C)CC(=O)Nc1ccc(S(=O)(=O)c2ccc(NC(=O)CN(CCC(C)C)CCC(C)C)cc2)cc1 | 42 µM | 9.98 µM | 6.14 µM | 5.19 µM | – | 3.25 µM | 4.01 µM | > 100 µM | – | – | 13.3 µM | – | – | 2.93 µM | 2.64 µM | 2.11 µM | 1.72 µM | 1.62 µM | 1.58 µM
O=C1OC(c2ccc(O)cc2)(c2ccc(O)cc2)c2ccc(Cl)c3cccc1c23 (tested in a mixture with another compound) | – | 21.1 µM | 31.6 µM | 28.4 µM | 16.2 µM | 17.9 µM | 19.8 µM | 25.7 µM | – | – | – | – | – | – | – | – | – | – | –
C[n+]1c2ccccc2c(N=[N+]=[N-])c2ccccc21 | – | > 10 µM | > 10 µM | > 10 µM | > 10 µM | > 10 µM | > 10 µM | > 10 µM | – | – | – | – | – | – | – | – | – | – | –
CC(=O)OC(C(=O)O)C(OC(C)=O)C(OC(C)=O)C(OC(C)=O)C(=O)O (stereo unspecified) | – | > 100 µM | > 100 µM | > 100 µM | > 100 µM | > 100 µM | > 100 µM | > 100 µM | – | – | – | – | – | – | – | – | – | – | –
C=C(CN(C)C)C(=O)c1ccccc1OC | 61 µM | 38.2 µM | 30 µM | > 56 µM | > 100 µM | 63 µM | 28.9 µM | 65.3 µM | 14.2 µM | 42.5 µM | – | – | – | – | – | – | – | – | –
Cc1ncc(C(=O)Nc2ccc(CN3CCN(C)CC3)c(C(F)(F)F)c2)cc1C#Cc1cnc(N)c2ccc(C#N)cc12 | – | – | – | > 100 µM | – | – | – | 5.05 µM | – | – | – | – | – | 1.81 µM | – | – | 0.0607 µM | – | –
O=C(CSCC(=O)N/N=C\c1ccc(F)cc1F)N/N=C\c1ccc(F)cc1F | > 100 µM | > 100 µM | > 100 µM | > 100 µM | > 100 µM | > 100 µM | > 100 µM | > 100 µM | – | – | – | – | – | – | – | – | – | – | –
CCCCCCCCCCCCc1ccc(S(=O)(=O)O)cc1.[Cu+2] | > 100 µM | > 100 µM | – | – | > 100 µM | > 100 µM | > 100 µM | > 100 µM | – | – | – | – | – | – | – | – | – | – | –
Cc1csc2nc(-c3cccc([N+](=O)[O-])c3)c(/C=N/N=C(N)N)n12 | 3.16 µM | 3.15 µM | 3.42 µM | – | – | 4.86 µM | 3.1 µM | 36.3 µM | – | – | – | – | – | – | – | – | – | – | –
c1ccc(CSC(SCc2ccccc2)c2cccc3ccccc23)cc1 | > 10 µM | > 10 µM | > 10 µM | > 10 µM | > 10 µM | > 10 µM | > 10 µM | > 10 µM | – | – | – | – | – | – | – | – | – | – | –
C[N+]1(C(CO)Cc2c[nH]c3ccccc23)Cc2ccccc2C1 (stereo unspecified) | > 100 µM | > 100 µM | > 100 µM | > 100 µM | > 100 µM | > 100 µM | > 100 µM | > 100 µM | – | – | – | – | – | – | – | – | – | – | –
CC(C)CNC1=NCC(C)S1 (stereo unspecified) | > 100 µM | > 100 µM | > 100 µM | > 100 µM | > 100 µM | > 100 µM | > 100 µM | – | – | – | – | – | – | – | – | – | – | – | –
O=C(O)c1cc2ccccc2c(N=Nc2ccc(S(=O)(=O)Nc3ccccn3)cc2)c1O | > 100 µM | > 100 µM | > 100 µM | > 100 µM | > 100 µM | > 100 µM | > 100 µM | > 100 µM | – | – | – | – | – | – | – | – | – | – | –
